Source: paper PMC4178217, “Quinoline 3-sulfonamides inhibit lactate dehydrogenase A and reverse aerobic glycolysis in cancer cells” (Cancer & Metabolism, 2013)
Values joined by “and” are separate entries in the source; they are usually repeats but may differ in a detail not shown here. Equal entries are not always repeated.

Test system: Snu398 cells
Conditions: Snu-398 conditioned medium, 10 μM, 24 h
Description: Ten million Snu398 or HepG2 cells per flask were plated in R10 medium in T150 tissue culture flasks and allowed to attach overnight. The following morning, medium was replaced with medium containing either DMSO or 10 μM LDHA inhibitor, and cells were incubated for 24 h at 37°C. The conditioned medium was collected and cells were washed, lifted by trypsinization and pelleted. Both medium and cell samples were submitted for mass spectroscopy (MS) analysis of over 500 individual metabolites. All samples were prepared in replicates of five.

COc1ncc(-c2ccc3c(Nc4cc(C(=O)O)cc(C5CCCC5)c4)c(S(=O)(=O)NC4CC4)cnc3c2)c(OC)n1 [Compound 2]
fold change 1-oleoylglycerophosphocholine: 1.05
fold change 1-palmitoleoylglycerophosphocholine*: 0.90
fold change 1-palmitoylglycerophosphocholine: 1.01
fold change 1-stearoylglycerophosphocholine: 1.19
fold change 2'-O-methylguanosine: 0.80
fold change 2-aminobutyrate: 0.99
fold change 2-hydroxybutyrate (AHB): 0.99
fold change 2-hydroxyglutarate: 1.18
fold change 2-methylbutyroylcarnitine: 1.01
fold change 2-methylbutyrylglycine: 1.13
fold change 2-oleoylglycerophosphocholine*: 0.98
fold change 2-palmitoylglycerophosphocholine*: 1.26
fold change 2-stearoylglycerophosphocholine*: 1.42
fold change 3-(4-hydroxyphenyl)lactate: 0.97
fold change 3-dehydrocarnitine*: 1.02
fold change 3-indoxyl sulfate: 1.06
fold change 3-methyl-2-oxobutyrate: 1.05
fold change 3-methyl-2-oxovalerate: 1.03
fold change 4-acetamidobutanoate: 0.90
fold change 4-guanidinobutanoate: 0.77
fold change 4-methyl-2-oxopentanoate: 1.21
fold change 5-oxoproline: 1.19
fold change 6'-sialyllactose: 1.11
fold change C-glycosyltryptophan*: 0.98
fold change HEPES: 0.97
fold change Isobar: 2-propylpentanoic acid, 2-ethylhexanoic acid: 1.15
fold change N1-methyladenosine: 1.01
fold change N1-methylguanosine: 0.95
fold change N6-carbamoylthreonyladenosine: 0.91
fold change N-acetylaspartate (NAA): 0.99
fold change N-acetylneuraminate: 0.79
fold change N-acetylornithine: 1.11
fold change X - 02952: 0.28
fold change X - 02973: 1.02
fold change X - 03090: 1.76
fold change X - 04015: 1.25
fold change X - 04133: 1.17
fold change X - 04135: 1.33
fold change X - 04148: 1.14
fold change X - 04252: 0.37
fold change X - 04357: 3.15
fold change X - 05907: 1.01
fold change X - 06126: 0.91
fold change X - 06911: 0.81
fold change X - 08172: 1.18
fold change X - 08889: 1.38
fold change X - 08895: 0.98
fold change X - 09008: 1.34
fold change X - 09026: 1.05
fold change X - 10475: 1.45
fold change X - 10476: 1.32
fold change X - 10634: 0.42
fold change X - 10740: 0.87
fold change X - 10869: 0.69
fold change X - 11081: 1.19
fold change X - 11315: 1.04
fold change X - 11533: 0.87
fold change X - 11593: 0.89
fold change X - 11787: 0.94
fold change X - 12013: 0.89
fold change X - 12015: 1.01
fold change X - 12117: 1.10
fold change X - 12216: 0.96
fold change X - 12339: 1.00
fold change X - 12435: 0.96
fold change X - 12602: 0.99
fold change X - 12729: 1.00
fold change X - 12749: 0.94
fold change X - 12776: 1.11
fold change X - 12786: 2.02
fold change X - 12792: 1.10
fold change X - 12799: 0.97
fold change X - 12944: 1.00
fold change X - 13100: 0.98
fold change X - 13103: 0.98
fold change X - 13104: 1.21
fold change X - 13110: 1.01
fold change X - 13115: 0.80
fold change X - 13117: 0.96
fold change X - 13166: 0.94
fold change X - 13483: 0.87
fold change X - 13491: 1.35
fold change X - 13494: 1.24
fold change X - 13496: 1.00
fold change X - 13507: 1.11
fold change X - 13553: 1.09
fold change X - 13581: 2.54
fold change X - 13857: 0.86
fold change X - 14056: 1.73
fold change X - 14574: 1.45
fold change X - 14588: 0.84
fold change X - 15558: 1.10
fold change X - 15559: 1.21
fold change X - 15562: 1.10
fold change X - 15563: 1.18
fold change X - 15678: 1.19
fold change X - 15808: 1.12
fold change X - 16103: 0.95
fold change X - 16116: 0.82
fold change X - 16200: 1.20
fold change X - 16206: 1.03
fold change X - 16439: 1.19
fold change X - 16444: 1.03
fold change X - 17112: 0.96
fold change X - 17430: 1.10
fold change acetylcarnitine: 0.97
fold change acetylphosphate: 1.00
fold change alanine: 1.20
fold change alanylglutamine: 0.94
fold change allantoin: 1.08
fold change arabitol: 1.09
fold change arachidonate (20:4n6): 1.01
fold change arginine: 0.98
fold change asparagine: 0.74
fold change aspartate: 1.09
fold change aspartylleucine: 0.96
fold change beta-alanine: 0.86
fold change beta-hydroxyisovalerate: 0.93
fold change beta-hydroxypyruvate: 1.05
fold change betaine: 1.00
fold change biotin: 0.97
fold change butyrylcarnitine: 0.76
fold change caproate (6:0): 1.01
fold change caprylate (8:0): 1.04
fold change carnitine: 0.93
fold change catechol sulfate: 1.01
fold change choline: 0.97
fold change citrate: 1.02
fold change citrulline: 0.95
fold change creatine: 1.01
fold change creatinine: 1.07
fold change cyclo(leu-ala): 0.93
fold change cysteine: 1.01
fold change cysteine sulfinic acid: 0.95
fold change cysteine-glutathione disulfide: 1.41
fold change deoxycarnitine: 0.95
fold change dimethyl sulfoxide*: 1.03
fold change dimethylarginine (SDMA + ADMA): 1.30
fold change docosahexaenoate (DHA; 22:6n3): 1.03
fold change docosapentaenoate (n3 DPA; 22:5n3): 0.89
fold change erythritol: 1.01
fold change erythronate*: 0.96
fold change ethanolamine: 1.09
fold change folate: 1.00
fold change fructose: 1.01
fold change fumarate: 0.99
fold change gamma-glutamylisoleucine*: 0.74
fold change gamma-glutamylleucine: 0.89
fold change gamma-glutamylphenylalanine: 1.18
fold change gamma-glutamylvaline: 0.85
fold change glucose: 1.07
fold change glutamate: 1.05
fold change glutamine: 1.15
fold change glycerate: 1.15
fold change glycerol: 1.10
fold change glycerol 3-phosphate (G3P): 0.95
fold change glycerophosphorylcholine (GPC): 0.86
fold change glycine: 1.06
fold change glycochenodeoxycholate: 0.90
fold change glycocholate: 1.02
fold change glycylglycine: 0.90
fold change glycylleucine: 0.84
fold change glycyltyrosine: 0.99
fold change glycylvaline: 0.96
fold change heme*: 0.94
fold change hexadecanedioate: 1.07
fold change hippurate: 0.98
fold change histidine: 1.01
fold change homostachydrine*: 1.01
fold change hydroquinone: 0.85
fold change indolelactate: 1.02
fold change isobutyrylcarnitine: 1.03
fold change isoleucine: 0.96
fold change isovalerate: 0.68
fold change isovalerylcarnitine: 1.02
fold change kynurenate: 1.10
fold change kynurenine: 1.07
fold change lactate: 0.94
fold change leucine: 0.95
fold change lysine: 0.51
fold change lysylleucine: 0.85
fold change malate: 0.95
fold change mannitol: 0.82
fold change methionine: 0.94
fold change myo-inositol: 0.98
fold change nicotinamide: 0.87
fold change ornithine: 0.80
fold change p-aminobenzoate (PABA): 0.98
fold change p-cresol sulfate: 0.96
fold change palmitoyl sphingomyelin: 0.96
fold change pantothenate: 0.98
fold change phenol red: 0.99
fold change phenol sulfate: 1.00
fold change phenylacetylglycine: 0.95
fold change phenylalanine: 0.89
fold change phosphate: 1.01
fold change pipecolate: 1.02
fold change pro-hydroxy-pro: 1.06
fold change proline: 1.13
fold change propionylcarnitine: 0.95
fold change pseudouridine: 1.02
fold change putrescine: 0.82
fold change pyridoxate: 0.95
fold change pyridoxine (Vitamin B6): 1.02
fold change pyruvate: 3 and 2.66
fold change ribitol: 1.06
fold change riboflavin (Vitamin B2): 1.02
fold change scyllo-inositol: 0.89
fold change serine: 0.84
fold change serotonin (5HT): 1.03
fold change sorbitol: 0.98
fold change succinate: 0.98
fold change taurocholate: 0.89
fold change taurodeoxycholate: 0.96
fold change tetradecanedioate: 0.80
fold change thiamin (Vitamin B1): 1.12
fold change threitol: 0.96
fold change threonine: 0.96
fold change trans-4-hydroxyproline: 1.06
fold change tryptophan: 0.90
fold change tyrosine: 0.91
fold change uracil: 0.99
fold change urea: 1.10
fold change uridine: 1.20
fold change valerylcarnitine: 0.97
fold change valine: 0.95
fold change xylitol: 1.13
